Converted amounts (≈) assume the structure as drawn.
tested on: not listed separately; assay: Cytotoxicity on uninfected Vero cells, MTT; type: cell-based; details: African green monkey; concentration reducing cell viability by 50%; uninfected Vero cells, 48 h, MTT; read-out: CC50 (µg/mL) Vero
Experimental: (§1) The antiviral activities of gramine and its derivatives against EV71 based on inhibition of virus-induced cytopathogenicity effects (CPEs) in African green monkey kidney cells (Vero) and rhabdomyosarcoma cells (RD) were examined. The cytotoxic effects were also evaluated. The inhibitory activities expressed as half maximal effective concentration (EC50) values and selectivity indexes (SI) for the target compounds are presented in Table 1, and the dose-dependent antiviral effects are shown in Figure 1A.
(§2) The activity of compounds against EV71 was determined based on the inhibition of virus-induced cytopathogenicity effects (CPEs) in acutely infected cells. Vero and RD cells grown to 90% confluency in 96-well dishes were washed with phosphate buffered saline (PBS) and infected with 100 TCID50 of EV71 mixed with serial dilutions of tested compounds for 1.5 h at 37 °C. The inoculum was aspirated and cells were incubated with DMEM and test compounds at 37 °C, 5% CO2 for 48 h. The CPEs were observed microscopically and the viability of the cells was determined with a 3-(4,5-dimethylthiazol-2-yl)-2,5-diphenyltetrazolium bromide (MTT) assay. The concentrations required for the test compounds to achieve 50% protection from virus-induced cytopathogenicity (EC50) were determined. Adverse effects of these compounds on the host cells were also assessed by means of the MTT-method; by exposing uninfected cells to various concentrations of test compounds for 48 h at 37 °C, the viability of the cells was detected. The 50% cell cytotoxic concentrations (CC50) of compounds were calculated with the SPSS software (SPSS, Chicago, IL, USA). Selectivity indexes were calculated as the ratio of CC50: EC50.
(§3) Cell viability was assessed by an MTT assay, which functions based on the reduction of a MTT into formazan dye by active mitochondria. The cells were treated with 100 µL of MTT (1 mg/mL, Sigma, St. Louis, MO, USA) and incubated at 37 °C for 4 h. The reaction was blocked by DMSO and measured in a microplate reader (Bio-Tek Instruments, Winooski, VT, USA) at 492 nm. The untreated control was arbitrarily set as 100%.

`FC(F)(F)c1ccc(C(Nc2ccccn2)c2c[nH]c3ccccc23)cc1` (stereo not shown) [Compound 4j] and `Cn1cc(C(Nc2ccccn2)c2ccc(C(F)(F)F)cc2)c2ccccc21` (stereo not shown) [Compound 4k] are within error of each other in CC50 at 48 h: 15.8 ± 3.3 µg/mL (≈ 43 µM) for the first, 18.5 ± 4.8 µg/mL (≈ 48.5 µM) for the second.

First: c1ccc(NC(c2ccccn2)c2c[nH]c3ccccc23)nc1 (stereo not shown) [Compound 4l]
Second: Cn1cc(C(Nc2ccccn2)c2ccccn2)c2ccccc21 (stereo not shown) [Compound 4m]
The CC50 at 48 h of the first is lower: 96.2 ± 15.5 µg/mL (≈ 320 µM) for the first, > 200 µg/mL for the second.

First: c1ccc(NC(c2ccncc2)c2c[nH]c3ccccc23)nc1 (stereo not shown) [Compound 4n]
Second: Cn1cc(C(Nc2ccccn2)c2ccncc2)c2ccccc21 (stereo not shown) [Compound 4o]
The CC50 at 48 h of the first is 1.7-fold higher: 121 ± 20.5 µg/mL (≈ 402 µM) for the first, 72.8 ± 18.8 µg/mL (≈ 232 µM) for the second.

Going from `Clc1ccccc1C(Nc1nc2ccccc2s1)c1c[nH]c2ccccc12` (stereo not shown) [Compound 4p] to `Fc1ccccc1C(Nc1nc2ccccc2s1)c1c[nH]c2ccccc12` (stereo not shown) [Compound 4q], the CC50 at 48 h rises from 6.6 ± 1.4 µg/mL (≈ 16.9 µM) to 10.8 ± 2.5 µg/mL (≈ 28.9 µM) (1.6-fold).

Compared with `Fc1ccc(C(c2c[nH]c3ccccc23)n2cccn2)cc1` (stereo not shown) [Compound 4t], `Fc1ccc(C(c2c[nH]c3ccccc23)n2cncn2)cc1` (stereo not shown) [Compound 4u] is 2.1-fold lower in CC50 at 48 h: 10.5 ± 2.4 µg/mL (≈ 36 µM) for the first, 4.9 ± 0.6 µg/mL (≈ 16.8 µM) for the second.

tested on: not listed separately; assay: Cytotoxicity on uninfected RD cells, MTT; type: cell-based; details: human, concentration reducing cell viability by 50%
Experimental: Human RD cells and Vero cells were maintained in Dulbecco’s modified Eagle’s medium (Gibco-Invitrogen, Carlsbad, CA, USA) supplemented with 10% fetal bovine serum (FBS; Gibco), 100 U/mL of penicillin and streptomycin, and 2 mM L-glutamine. Enterovirus 71 (EV71) was kindly provided by Zhanqiu Yang (Institute of Medical Virology, School of Medicine, Wuhan University, China) and propagated in RD cell lines. The virus titer was determined by the standard method of median tissue culture infective dose (TCID50) on RD cells.
as §2, §3

`FC(F)(F)c1ccc(C(Nc2ccccn2)c2c[nH]c3ccccc23)cc1` (stereo not shown) [Compound 4j] and `Cn1cc(C(Nc2ccccn2)c2ccc(C(F)(F)F)cc2)c2ccccc21` (stereo not shown) [Compound 4k] are within error of each other in CC50 at 48 h: 17.8 ± 2.6 µg/mL (≈ 48.5 µM) for the first, 27.6 ± 8.3 µg/mL (≈ 72.4 µM) for the second.

Compared with `c1ccc(NC(c2ccccn2)c2c[nH]c3ccccc23)nc1` (stereo not shown) [Compound 4l], `Cn1cc(C(Nc2ccccn2)c2ccccn2)c2ccccc21` (stereo not shown) [Compound 4m] is higher in CC50 at 48 h: 65.2 ± 9.1 µg/mL (≈ 217 µM) for the first, > 200 µg/mL for the second.

Compared with `c1ccc(NC(c2ccncc2)c2c[nH]c3ccccc23)nc1` (stereo not shown) [Compound 4n], `Cn1cc(C(Nc2ccccn2)c2ccncc2)c2ccccc21` (stereo not shown) [Compound 4o] is lower in CC50 at 48 h: > 200 µg/mL for the first, 39.2 ± 11.6 µg/mL (≈ 125 µM) for the second.

`Clc1ccccc1C(Nc1nc2ccccc2s1)c1c[nH]c2ccccc12` (stereo not shown) [Compound 4p] and `Fc1ccccc1C(Nc1nc2ccccc2s1)c1c[nH]c2ccccc12` (stereo not shown) [Compound 4q] are within error of each other in CC50 at 48 h: 11.7 ± 4.6 µg/mL (≈ 30 µM) for the first, 14.5 ± 3.6 µg/mL (≈ 38.8 µM) for the second.

`Fc1ccc(C(c2c[nH]c3ccccc23)n2cccn2)cc1` (stereo not shown) [Compound 4t] and `Fc1ccc(C(c2c[nH]c3ccccc23)n2cncn2)cc1` (stereo not shown) [Compound 4u] are within error of each other in CC50 at 48 h: 12.6 ± 3.5 µg/mL (≈ 43.3 µM) for the first, 6.8 ± 2.5 µg/mL (≈ 23.3 µM) for the second.

tested on: Enterovirus 71 (EV71); assay: Inhibition of EV71-induced cytopathogenicity (CPE) in RD cells, MTT; type: cell-based; details: Enterovirus A; concentration for 50% protection from virus-induced cytopathogenicity; RD cells, 100 TCID50 EV71, 48 h, MTT; read-out: EC50 (µg/mL) RD
Experimental: as §1, §2, §3

In order of falling EC50:
1. Cn1cc(C(Nc2ccccn2)c2ccc(C(F)(F)F)cc2)c2ccccc21 (stereo not shown) [Compound 4k]  9.8 ± 3.4 µg/mL (≈ 25.7 µM)
2. Cn1cc(C(Nc2ccccn2)c2ccncc2)c2ccccc21 (stereo not shown) [Compound 4o]  9.5 ± 1.7 µg/mL (≈ 30.2 µM)
3. FC(F)(F)c1ccc(C(Nc2ccccn2)c2c[nH]c3ccccc23)cc1 (stereo not shown) [Compound 4j]  8.3 ± 3.5 µg/mL (≈ 22.6 µM)
4. Clc1ccccc1C(Nc1nc2ccccc2s1)c1c[nH]c2ccccc12 (stereo not shown) [Compound 4p]  3.2 ± 0.4 µg/mL (≈ 8.21 µM)
5. Fc1ccc(C(c2c[nH]c3ccccc23)n2cncn2)cc1 (stereo not shown) [Compound 4u]  3.1 ± 1.3 µg/mL (≈ 10.6 µM)
6. Fc1ccccc1C(Nc1nc2ccccc2s1)c1c[nH]c2ccccc12 (stereo not shown) [Compound 4q]  2.7 ± 1.2 µg/mL (≈ 7.23 µM)
7. Fc1ccc(C(c2c[nH]c3ccccc23)n2cccn2)cc1 (stereo not shown) [Compound 4t]  2.6 ± 0.8 µg/mL (≈ 8.92 µM)

same assay, conditions: concentration for 50% protection from virus-induced cytopathogenicity; RD cells, 100 TCID50 EV71, 48 h, MTT

In the case of `c1ccc(NC(c2ccccn2)c2c[nH]c3ccccc23)nc1` (stereo not shown) [Compound 4l], the “EC50 (µg/mL) RD” value is reported as “— (less than 50% inhibition)”.
For `Cn1cc(C(Nc2ccccn2)c2ccccn2)c2ccccc21` (stereo not shown) [Compound 4m], the “EC50 (µg/mL) RD” value was “— (less than 50% inhibition)”.
In the case of `c1ccc(NC(c2ccncc2)c2c[nH]c3ccccc23)nc1` (stereo not shown) [Compound 4n], the “EC50 (µg/mL) RD” value is reported as “— (less than 50% inhibition)”.

tested on: Enterovirus 71 (EV71); assay: Inhibition of EV71-induced cytopathogenicity (CPE) in Vero cells, MTT; type: cell-based; details: Enterovirus A; concentration for 50% protection from virus-induced cytopathogenicity; Vero cells, 100 TCID50 EV71, 48 h, MTT; mean ± SD of three experiments; read-out: EC50 (µg/mL) Vero
Experimental: as §1
Figure 1 Gramine and its synthetic derivatives inhibited virus-induced CPE. (A) Vero cells were infected with 100 TCID50 of EV71 mixed with serial dilutions of tested compounds for 1.5 h at 37 °C; the inoculum was aspirated and cells were incubated with DMEM/tested compounds at 37 °C, 5% CO2 for 48 h pi. The viability of the cells was determined with an MTT assay; (B) Morphology image of Vero and RD cells treated with compounds 4a, 4i, 4r, and 4s for 48 h pi. (magnification, 20×).
as §2, §3

In order of falling EC50:
1. Cn1cc(C(Nc2ccccn2)c2ccncc2)c2ccccc21 (stereo not shown) [Compound 4o]  16.9 ± 1.5 µg/mL (≈ 53.8 µM)
2. Cn1cc(C(Nc2ccccn2)c2ccc(C(F)(F)F)cc2)c2ccccc21 (stereo not shown) [Compound 4k]  13.2 ± 1.3 µg/mL (≈ 34.6 µM)
3. FC(F)(F)c1ccc(C(Nc2ccccn2)c2c[nH]c3ccccc23)cc1 (stereo not shown) [Compound 4j]  8.7 ± 2.9 µg/mL (≈ 23.7 µM)
4. Fc1ccc(C(c2c[nH]c3ccccc23)n2cncn2)cc1 (stereo not shown) [Compound 4u]  2.3 ± 0.3 µg/mL (≈ 7.87 µM)
5. Clc1ccccc1C(Nc1nc2ccccc2s1)c1c[nH]c2ccccc12 (stereo not shown) [Compound 4p]  2.1 ± 0.7 µg/mL (≈ 5.39 µM)
6. Fc1ccc(C(c2c[nH]c3ccccc23)n2cccn2)cc1 (stereo not shown) [Compound 4t]  1.9 ± 0.6 µg/mL (≈ 6.52 µM)
7. Fc1ccccc1C(Nc1nc2ccccc2s1)c1c[nH]c2ccccc12 (stereo not shown) [Compound 4q]  1.8 ± 1.1 µg/mL (≈ 4.82 µM)

same assay, conditions: concentration for 50% protection from virus-induced cytopathogenicity; Vero cells, 100 TCID50 EV71, 48 h, MTT; mean ± SD of three experiments

For `c1ccc(NC(c2ccccn2)c2c[nH]c3ccccc23)nc1` (stereo not shown) [Compound 4l], the “EC50 (µg/mL) Vero” value was “— (less than 50% inhibition)”.
For `Cn1cc(C(Nc2ccccn2)c2ccccn2)c2ccccc21` (stereo not shown) [Compound 4m], the “EC50 (µg/mL) Vero” value was “— (less than 50% inhibition)”.
For `c1ccc(NC(c2ccncc2)c2c[nH]c3ccccc23)nc1` (stereo not shown) [Compound 4n], the “EC50 (µg/mL) Vero” value was “— (less than 50% inhibition)”.
